Values quoted from earlier work in patent US12234263B2, “Influenza vaccines” (InvVax, Inc., priority 2016, dated 2025).

System: CD8 T-cell
Settings: BALB/C; worldwideweb.fludb.org

For TYQRTRALV [SEQ ID NO: 37], which “experimentally validated CD8 T-cell epitope” value is on record?
Its value is “experimentally validated BALB/C influenza A virus CD8 T-cell epitope”.
